Laboratory results taken from ChEMBL document CHEMBL1148863, “Discovering new inhibitors of bacterial glucosamine-6P synthase (GlmS) by docking simulations” (Bioorg Med Chem Lett, 2007).

How the values were obtained:
[1] = Inhibition of bacterial glucosamine-6-phosphate synthase by colorimetric morgan-elson assay
[2] = Inhibition of bacterial glucosamine-6-phosphate synthase at 100 uM by colorimetric morgan-elson assay

| Compound | IC50 [1] | inhibition [2] |
| --- | --- | --- |
| O=C(O)Cc1csc(NC(=O)CSc2ccccn2)n1 | – | 0% |
| N[C@@H](CO)[C@@H](O)[C@H](O)[C@H](O)COP(=O)(O)O | 56 µM | 85% |
| O=C(C1=C(O)C(=O)N(Cc2cccnc2)C1c1cccc(Oc2ccccc2)c1)c1ccco1 (stereo not drawn) | – | 20% |
| Nc1nc[nH]n1 [AMITROLE] | 100 µM | – |
| COC(=O)c1sc(N2C(=O)C(O)=C(C(=O)c3ccccc3)C2c2ccc(C)cc2)nc1C (stereo not drawn) | – | 0% |
| O=C(O)C[C@@H](NS(=O)(=O)c1ccccc1)C(=O)O | – | 0% |
| O=C(O)CC(Sc1ccc(C(=O)O)cc1)C(=O)O (stereo not drawn) | – | 0% |

Other lines, results leading:

| IC50 [1] | inhibition [2] | Compound |
| --- | --- | --- |
| 120 µM | – | COc1cc2ccnc3c2c(c1OC)NC=C3 [AAPTAMINE] |
| – | 0% | O=S(=O)(NC(NS(=O)(=O)c1ccccc1)c1ccc(Br)cc1)c1ccccc1 |
| – | 0% | COC(=O)c1sc(N2C(=O)C(O)=C(C(=O)c3ccc(Cl)cc3)C2c2ccccc2F)nc1C (stereo not drawn) |
| – | 0% | COc1ccc(-c2sc(C(=O)O)cc2CC(=O)O)cc1 |
| 70 µM | 70% | CCOC(=O)c1sc(N2C(=O)C(O)=C(C(=O)c3ccc(F)cc3)C2c2ccc(OC)cc2)nc1C (stereo not drawn) |
| 70 µM | 70% | CCOC(=O)c1sc(N2C(=O)C(O)=C(C(=O)c3ccc(F)cc3)C2c2cccc(Br)c2)nc1C (stereo not drawn) |
| 70 µM | 70% | COc1ccccc1C1Oc2ccccc2C2=C1C(c1ccccc1OC)n1nc(C)nc1N2 (stereo not drawn) |
